Data taken from patent US20200352913A1, “NEW METHOD FOR TREATING DENGUE VIRUS INFECTION” (INSERM (INSTITUT NATIONAL DE LA SANTÉ ET DE LA RECHERCHE …, priority 2017, published 2020).
Entries after “also recorded” stand apart in the source; their conditions may differ.

Legend:
DENV2_16681 [1] = conditions: Diamond et al., 2002; targets de novo purine biosynthesis pathway; cited from earlier work
DENV NS1 glycosylation = DENV NS1 glycosylation under NGI-1 (immunoblot, data not shown); assay type: cell-based; conditions: dose dependent
Source text: (§1) The OST complex is known to be required for flavivirus infection through mechanisms that are poorly understood (Marceau et al., 2016; Savidis et al., 2016; Zhang et al., 2016). In mammalians, there are two OST complexes, each composed of a catalytic subunit isoform (STT3A or STT3B) associated with a set of shared subunits (RPN1, RPN2, DDOST, DAD1 and OST4) (Cherepanova et al., 2016). Their main function is to transfer a preassembled oligosaccharide to selected asparagine residues within the consensus sequence asparagine-X-serine/threonine (Cherepanova et al., 2016). […] To test whether the OST complex contributes to NS1 or NS4B N-glycosylation, we transfected HEK-293T cells with a siRNA pool targeting RPN1, DDOST, STT3A or STT3B. […] We then examined the effect of NGI-1, a recently discovered N-linked glycosylation inhibitor that directly and reversibly interacts with the OST catalytic subunits (Lopez-Sambrooks et al., 2016). […] To pinpoint the effect of hypoglycosylation on NS1 stability, we transfected HEK-293T cells with plasmids encoding FLAG-NS1 WT or mutants lacking the first (N130Q), the second (N207Q), or both N-linked glycosylation sites (N130Q/N207Q) (data not shown).

ZIKV NS1 glycosylation = ZIKV NS1 glycosylation under NGI-1 (immunoblot, data not shown); assay type: cell-based; conditions: dose dependent
Source text: as §1

DENV2_16681 [2] = assay: DENV infection of HeLa cells pre-incubated with drug (FIG. 2A); assay type: cell-based, Dengue virus
Protocol: (§2) FIG. 2. […] (A) HeLa cells were pre-incubated for 24h with increased concentration of NGI-1, or for 3h with MPA prior infection with DENV2_16681 (MOI 5). MPA, Mycophenolic acid. (B) Replication kinetics of DENV2 in HeLa replicon cells challenged with NGI-1 (2 μM) or MPA (10 μM) along the experiment duration. (C) Supernatants from HEK-293T cells transfected with FLAG-NS plasmids, were subjected to ELISA to quantify secreted NS1. (D) HeLa cells were incubated for 24 hours with NGI-1 and challenged in continuous presence of the drug with DENV1 (MOI 1), DENV2_16681 (MOI 5), DENV2_JAM (MOI 5), DENV3_THAI (MOI 5), WNV (MOI 1), ZIKV (MOI 1), CHIKV (MOI 5) or HSV (MOI 0.3). (E) Similarly treated primary skin fibroblast and monocyte derived dendritic cells (MDDC) were challenged with DENV2_16681 (MOI 5) and ZIKV_HD78788 (MOI 2). (D and E) The levels of infected cells were assessed 24h post infection by flow cytometry using respective anti-viral antibodies. (A-E) Data shown are means±SD of two independent experiments. Significance was calculated using a one-way ANOVA statistical test with a Dunnett's multiple (A, B and C) or Tukey comparison test (D and E). (n.s., not significant; **p<0.001; […]).
(§3) The OST complex is known to be required for flavivirus infection through mechanisms that are poorly understood (Marceau et al., 2016; Savidis et al., 2016; Zhang et al., 2016). […]

[3] = tested on: DENV2 replicon (vRNA amplification); assay: Replication kinetics of DENV2 in HeLa replicon cells (FIG. 2B); assay type: cell-based, Dengue virus; conditions: NGI-1 2 μM
Protocol: as §2, §3

secreted NS1 = assay: ELISA of secreted NS1 in supernatants (FIG. 2C); assay type: cell-based, DENV
Protocol: as §2, §3

[4] = data not shown
Source text: as §1

Cell proliferation = Cell proliferation over time (FIG. 3); assay type: cell-based; conditions: NGI-1 2 μM, measured over time, RLU
Protocol: FIG. 3. Cell proliferation is not affected by NGI-1. Cell proliferation is measured over time after incubation with NGI-1 (2 μM), MPA (10 μM) or respective mock control. Data shown are means±S.D. of one representative experiment of three replicates. RLU, relative light units.

[5] = tested on: DENV1, DENV2_16681, DENV2_JAM, DENV3_THAI; assay: Infection of HeLa cells by DENV serotypes, flow cytometry (FIG. 2D); assay type: cell-based, Dengue virus; conditions: 24 h pre-incubation, continuous drug, 24h post infection
Protocol: as §2

WNV = assay: Infection of HeLa cells by WNV, flow cytometry (FIG. 2D); assay type: cell-based, West Nile virus; conditions: MOI 1, 24h post infection
Protocol: as §2

HSV = assay: Infection of HeLa cells by HSV, flow cytometry (FIG. 2D); assay type: cell-based; conditions: MOI 0.3, 24h post infection
Protocol: as §2

DENV2_16681 [6] = assay: DENV infection of human primary skin fibroblasts (FIG. 2E); assay type: cell-based, Dengue virus; conditions: DENV2_16681 MOI 5, 24h post infection
Protocol: as §2

DENV2_16681 [7] = assay: DENV infection of monocyte-derived dendritic cells (FIG. 2E); assay type: cell-based, Dengue virus; conditions: DENV2_16681 MOI 5, 24h post infection
Protocol: as §2

Compound	DENV replication inhibition (literature) (DENV2_16681 [1])	DENV NS1 glycosylation (DENV NS1 glycosylation)	ZIKV NS1 glycosylation (ZIKV NS1 glycosylation)	antiviral activity compared with MPA (DENV2_16681 [2]; FIGS. 2A and B, NGI-1 2 μM, MPA 10 μM in replicon cells)	DENV infection (DENV2_16681 [2]; HeLa cells, 24h pre-incubation with increased concentration of NGI-1, DENV2_16681 MOI 5, dose dependent)	vRNA amplification [3]	NS1 secretion (secreted NS1)	cytotoxicity [4]	cell proliferation / antiproliferative effects (Cell proliferation)	infection by the four DENV serotypes [5]	infection by WNV (WNV)	infection by HSV (HSV)	DENV infection of human primary skin fibroblasts (DENV2_16681 [6])	DENV infection of monocyte-derived dendritic cells (DENV2_16681 [7])
COc1c(C)c2c(c(O)c1C/C=C(\C)CCC(=O)O)C(=O)OC2 [MPA, mycophenolic acid]	a well-known DENV replication inhibitor	–	–	–	–	–	–	–	–	–	–	–	–	–
Cc1cnc(NC(=O)c2cc(S(=O)(=O)N(C)C)ccc2N2CCCC2)s1 [NGI-1]	–	strongly impaired	strongly impaired	comparable to mycophenolic acid	significantly inhibited	blocked	impaired	without any significant cytotoxicity	not affected; also recorded: without any significant cytotoxicity (data not shown) or antiproliferative effects	blocked	blocked	not	significantly reduced	significantly reduced
